These results are taken from ChEMBL document CHEMBL4043168, “The design and SAR of a novel series of 2-aminopyridine based LRRK2 inhibitors” (Bioorg Med Chem Lett, 2017).

Assay [1] concerns the target 5'-AMP-activated protein kinase catalytic subunit alpha-1 (Homo sapiens) (UniProt Q13131). Description: Inhibition of AMPKa1 labeling at conserved Lys2 (DLKPENVLLDAHMNAK) in human PBMC at 1 uM.
Assay [2] deals with Calcium/calmodulin-dependent protein kinase type II subunit delta (Homo sapiens) (UniProt Q13557). In words: Inhibition of CaMK2d labeling at conserved Lys2 (DLKPENLLLASK) in human PBMC at 1 uM.
Calcium/calmodulin-dependent protein kinase type II subunit delta (Homo sapiens), sequence (Q13557 whole entry): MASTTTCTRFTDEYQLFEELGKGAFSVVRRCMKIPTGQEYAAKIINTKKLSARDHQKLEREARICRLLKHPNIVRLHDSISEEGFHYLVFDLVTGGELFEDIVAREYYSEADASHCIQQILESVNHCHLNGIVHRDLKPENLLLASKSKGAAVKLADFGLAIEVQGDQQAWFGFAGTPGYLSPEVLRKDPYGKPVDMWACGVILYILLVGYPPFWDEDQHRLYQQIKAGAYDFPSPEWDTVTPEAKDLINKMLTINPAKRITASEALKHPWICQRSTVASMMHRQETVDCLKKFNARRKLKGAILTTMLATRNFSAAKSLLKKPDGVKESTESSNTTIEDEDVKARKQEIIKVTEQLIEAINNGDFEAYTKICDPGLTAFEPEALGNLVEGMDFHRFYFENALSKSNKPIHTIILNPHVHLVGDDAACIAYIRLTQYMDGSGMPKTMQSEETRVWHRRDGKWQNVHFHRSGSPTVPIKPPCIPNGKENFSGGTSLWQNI
Assay [3] addresses Cyclin-dependent kinase 7 (Homo sapiens) (UniProt P50613). Description: Inhibition of CDK7 labeling at conserved Lys2 (DLKPNNLLLDENGVLK) in human PBMC at 1 uM.
The target of assay [4] is Mitogen-activated protein kinase 3 (Homo sapiens) (UniProt P27361). Description: Inhibition of Erk1 ATP binding site (DLKPSNLLINTTCDLK) in human PBMC at 1 uM.
Assay [5] addresses Serine/threonine-protein kinase 10 (Homo sapiens) (UniProt O94804). In words: Inhibition of LOK conserved Lys2 (DLKAGNVLMTLEGDIR) in human PBMC at 1 uM. The settings on record: pooled result: one value given for 6 cell lines, strains, targets or settings.
In assay [6] the target is Ribosomal protein S6 kinase alpha-1 (Homo sapiens) (UniProt Q15418). Description: Inhibition of RSK1 domain2 conserved Lys2 (DLKPSNILYVDESGNPECLR) in human PBMC at 1 uM.
The target in assay [7] is T1, STE20-related kinase adapter protein alpha (Homo sapiens) (UniProt Q7RTN6).
T1 sequence (whole entry): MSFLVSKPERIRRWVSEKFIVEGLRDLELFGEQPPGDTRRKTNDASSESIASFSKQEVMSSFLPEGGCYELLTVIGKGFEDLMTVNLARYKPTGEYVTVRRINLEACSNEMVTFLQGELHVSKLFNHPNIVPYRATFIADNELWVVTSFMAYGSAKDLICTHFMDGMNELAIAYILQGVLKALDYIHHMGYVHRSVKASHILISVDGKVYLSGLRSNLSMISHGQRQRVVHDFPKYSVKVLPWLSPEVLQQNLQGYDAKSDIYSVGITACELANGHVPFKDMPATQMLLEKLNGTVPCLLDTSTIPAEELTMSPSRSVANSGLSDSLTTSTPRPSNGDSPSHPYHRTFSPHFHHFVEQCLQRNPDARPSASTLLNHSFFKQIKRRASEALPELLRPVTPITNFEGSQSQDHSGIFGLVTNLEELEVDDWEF
In words: Inhibition of STLK5 conserved Lys2 (SVKASHILISVDGK) in human PBMC at 1 uM.

Assay [8] has as its target Serine/threonine-protein kinase WNK1 (Homo sapiens) (UniProt Q9H4A3). Description: Inhibition of Wnk1 ATP binding site (GSFKTVYK) in human PBMC at 1 uM.
Assay [9] has the same target. In words: Inhibition of Wnk1 activation Loop (IGDLGLATLKR) in human PBMC at 1 uM.
For assay [10], the target named is Serine/threonine-protein kinase WNK4 (Homo sapiens) (UniProt Q96J92). Description: Inhibition of Wnk4 activation Loop (IGDLGLATLKR) in human PBMC at 1 uM.
Assay [11] has as its target 5'-AMP-activated protein kinase catalytic subunit alpha-1 (Homo sapiens) (UniProt Q13131). In words: Inhibition of AMPKa1 labeling at conserved Lys1 (VAVKILNR) in human PBMC at 0.1 uM.
For assay [12], the target named is Inhibitor of nuclear factor kappa-B kinase subunit beta (Homo sapiens) (UniProt O14920). Description: Inhibition of IKKb conserved Lys2 (DLKPENIVLQQGEQR) in human PBMC at 0.1 uM.
The target in assay [13] is Mitogen-activated protein kinase kinase kinase 2 (Homo sapiens) (UniProt Q9Y2U5). Description: Inhibition of MAP3K2 conserved Lys2 (DIKGANILR) in human PBMC at 0.1 uM.
Mitogen-activated protein kinase kinase kinase 2 (Homo sapiens), sequence (Q9Y2U5 whole entry, the tested form may be a part): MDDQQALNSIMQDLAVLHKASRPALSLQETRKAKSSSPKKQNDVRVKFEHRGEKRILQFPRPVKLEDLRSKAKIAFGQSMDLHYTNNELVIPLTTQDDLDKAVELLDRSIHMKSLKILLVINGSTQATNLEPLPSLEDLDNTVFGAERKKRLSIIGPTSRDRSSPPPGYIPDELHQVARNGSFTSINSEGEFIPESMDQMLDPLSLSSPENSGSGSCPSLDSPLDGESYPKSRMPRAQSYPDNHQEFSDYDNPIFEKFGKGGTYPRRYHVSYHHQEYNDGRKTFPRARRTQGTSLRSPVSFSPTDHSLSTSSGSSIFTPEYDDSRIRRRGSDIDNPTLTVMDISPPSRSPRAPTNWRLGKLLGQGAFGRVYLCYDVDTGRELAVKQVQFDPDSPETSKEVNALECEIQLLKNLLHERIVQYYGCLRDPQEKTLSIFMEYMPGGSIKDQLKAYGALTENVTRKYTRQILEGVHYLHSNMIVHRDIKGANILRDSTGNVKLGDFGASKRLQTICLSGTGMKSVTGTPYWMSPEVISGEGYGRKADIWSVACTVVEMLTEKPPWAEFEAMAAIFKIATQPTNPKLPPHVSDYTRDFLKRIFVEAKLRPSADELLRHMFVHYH
In assay [14] the target is Ribosomal protein S6 kinase alpha-4 (Homo sapiens) (UniProt O75676). Description: Inhibition of MSK2 domain1 conserved Lys2 (DIKLENILLDSNGHVVLTDFGLSK) in human PBMC at 0.1 uM.
Assay [15] has as its target Ribosomal protein S6 kinase alpha-3 (Homo sapiens) (UniProt P51812). In words: Inhibition of RSK2 domain1 activation Loop (LTDFGLSKESIDHEKK) in human PBMC at 0.1 uM.
The target of assay [16] is Myosin light chain kinase, smooth muscle (Homo sapiens) (UniProt Q15746). Description: Inhibition of smMLCK conserved Lys2 (QGIVHLDLKPENIMCVNK) in human PBMC at 0.1 uM.
Assay [17] has as its target Serine/threonine-protein kinase WNK1 (Homo sapiens) (UniProt Q9H4A3). Description: Inhibition of Wnk1 activation Loop (IGDLGLATLKR) in human PBMC at 0.1 uM. The conditions noted are these: pooled result: one value given for 4 cell lines, strains, targets or settings.
Assay [18] has as its target Cyclin-dependent kinase 17 (Homo sapiens) (UniProt Q00537). In words: Inhibition of PCTAIRE2 conserved Lys2 (DLKPQNLLINEK) in human PBMC at 1 uM.

Serine/threonine-protein kinase WNK1 (Homo sapiens), sequence (Q9H4A3 whole entry, looked up): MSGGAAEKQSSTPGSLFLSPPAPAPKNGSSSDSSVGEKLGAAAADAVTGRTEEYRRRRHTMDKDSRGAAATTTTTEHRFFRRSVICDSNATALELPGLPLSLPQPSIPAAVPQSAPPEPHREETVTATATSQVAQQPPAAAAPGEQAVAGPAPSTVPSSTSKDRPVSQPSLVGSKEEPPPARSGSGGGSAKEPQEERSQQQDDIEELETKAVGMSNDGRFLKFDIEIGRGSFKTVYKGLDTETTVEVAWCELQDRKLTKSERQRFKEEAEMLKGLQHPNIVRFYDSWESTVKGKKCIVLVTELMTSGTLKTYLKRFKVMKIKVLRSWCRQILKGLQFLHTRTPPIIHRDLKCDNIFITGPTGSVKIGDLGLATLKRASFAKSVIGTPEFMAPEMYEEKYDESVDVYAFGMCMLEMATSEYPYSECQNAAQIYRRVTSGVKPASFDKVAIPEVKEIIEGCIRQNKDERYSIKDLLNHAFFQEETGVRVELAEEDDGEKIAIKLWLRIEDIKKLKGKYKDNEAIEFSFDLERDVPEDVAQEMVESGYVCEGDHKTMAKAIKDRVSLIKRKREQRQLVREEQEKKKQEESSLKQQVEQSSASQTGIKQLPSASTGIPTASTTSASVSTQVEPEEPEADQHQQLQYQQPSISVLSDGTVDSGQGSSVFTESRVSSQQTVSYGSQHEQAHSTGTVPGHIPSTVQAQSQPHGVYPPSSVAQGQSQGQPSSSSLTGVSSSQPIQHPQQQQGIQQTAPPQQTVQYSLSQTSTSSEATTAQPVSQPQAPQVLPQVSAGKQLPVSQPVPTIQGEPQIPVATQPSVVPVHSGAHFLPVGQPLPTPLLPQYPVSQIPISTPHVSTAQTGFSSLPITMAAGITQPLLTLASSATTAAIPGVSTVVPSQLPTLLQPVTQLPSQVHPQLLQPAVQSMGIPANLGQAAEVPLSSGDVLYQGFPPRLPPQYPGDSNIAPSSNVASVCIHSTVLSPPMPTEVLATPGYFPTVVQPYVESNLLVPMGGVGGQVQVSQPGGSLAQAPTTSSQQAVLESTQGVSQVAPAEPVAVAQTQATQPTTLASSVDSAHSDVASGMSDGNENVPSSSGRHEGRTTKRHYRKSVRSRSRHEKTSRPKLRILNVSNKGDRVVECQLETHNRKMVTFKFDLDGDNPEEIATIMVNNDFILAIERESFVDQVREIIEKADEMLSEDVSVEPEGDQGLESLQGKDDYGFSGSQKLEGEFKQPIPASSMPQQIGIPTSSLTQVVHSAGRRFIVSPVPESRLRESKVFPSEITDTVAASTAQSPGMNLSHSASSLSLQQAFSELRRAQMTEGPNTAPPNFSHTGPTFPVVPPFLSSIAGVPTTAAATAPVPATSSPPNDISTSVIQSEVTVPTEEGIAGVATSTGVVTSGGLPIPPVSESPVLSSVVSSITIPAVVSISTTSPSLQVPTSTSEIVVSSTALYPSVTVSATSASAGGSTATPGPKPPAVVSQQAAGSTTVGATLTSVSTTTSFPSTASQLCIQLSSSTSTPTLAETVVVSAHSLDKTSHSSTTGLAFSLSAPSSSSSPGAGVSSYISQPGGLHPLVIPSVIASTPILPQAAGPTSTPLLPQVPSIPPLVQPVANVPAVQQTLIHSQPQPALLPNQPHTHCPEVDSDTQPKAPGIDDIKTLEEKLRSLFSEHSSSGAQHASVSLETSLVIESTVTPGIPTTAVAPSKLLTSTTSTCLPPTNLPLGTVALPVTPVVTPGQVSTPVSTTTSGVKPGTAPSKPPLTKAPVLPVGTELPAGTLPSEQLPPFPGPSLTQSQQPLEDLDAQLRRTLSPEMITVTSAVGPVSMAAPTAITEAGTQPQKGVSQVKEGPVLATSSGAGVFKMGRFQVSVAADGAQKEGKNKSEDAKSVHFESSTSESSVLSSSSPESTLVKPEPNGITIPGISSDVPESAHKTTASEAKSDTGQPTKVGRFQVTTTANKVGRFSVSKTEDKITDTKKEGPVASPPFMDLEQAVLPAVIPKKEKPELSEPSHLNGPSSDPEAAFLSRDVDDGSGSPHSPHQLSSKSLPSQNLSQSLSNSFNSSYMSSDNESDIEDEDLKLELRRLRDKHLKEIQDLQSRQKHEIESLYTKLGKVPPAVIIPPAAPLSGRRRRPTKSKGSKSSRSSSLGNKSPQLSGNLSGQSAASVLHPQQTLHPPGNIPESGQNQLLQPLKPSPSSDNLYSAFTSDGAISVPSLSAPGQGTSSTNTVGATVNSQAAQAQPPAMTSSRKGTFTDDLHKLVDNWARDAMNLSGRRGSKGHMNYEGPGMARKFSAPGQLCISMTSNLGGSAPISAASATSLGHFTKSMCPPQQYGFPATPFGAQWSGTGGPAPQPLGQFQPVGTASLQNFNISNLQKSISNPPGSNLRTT
5'-AMP-activated protein kinase catalytic subunit alpha-1 (Homo sapiens), sequence (Q13131 whole entry, looked up): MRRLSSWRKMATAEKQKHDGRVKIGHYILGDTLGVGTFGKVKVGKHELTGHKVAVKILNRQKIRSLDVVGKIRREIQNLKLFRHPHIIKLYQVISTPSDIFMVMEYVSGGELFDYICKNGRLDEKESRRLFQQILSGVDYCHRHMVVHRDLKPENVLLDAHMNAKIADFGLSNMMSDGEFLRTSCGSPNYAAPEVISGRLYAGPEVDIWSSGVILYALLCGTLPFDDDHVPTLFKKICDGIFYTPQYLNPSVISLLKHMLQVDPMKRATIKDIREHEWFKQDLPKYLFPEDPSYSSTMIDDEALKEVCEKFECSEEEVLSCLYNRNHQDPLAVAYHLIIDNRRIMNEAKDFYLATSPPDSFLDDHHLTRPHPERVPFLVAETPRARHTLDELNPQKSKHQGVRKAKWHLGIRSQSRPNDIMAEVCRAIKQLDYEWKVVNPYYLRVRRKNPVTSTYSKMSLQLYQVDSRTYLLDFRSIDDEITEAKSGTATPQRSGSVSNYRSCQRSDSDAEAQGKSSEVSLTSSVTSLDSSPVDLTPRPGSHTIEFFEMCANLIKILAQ
Serine/threonine-protein kinase 10 (Homo sapiens), sequence (O94804 whole entry, looked up, the tested form may be a part): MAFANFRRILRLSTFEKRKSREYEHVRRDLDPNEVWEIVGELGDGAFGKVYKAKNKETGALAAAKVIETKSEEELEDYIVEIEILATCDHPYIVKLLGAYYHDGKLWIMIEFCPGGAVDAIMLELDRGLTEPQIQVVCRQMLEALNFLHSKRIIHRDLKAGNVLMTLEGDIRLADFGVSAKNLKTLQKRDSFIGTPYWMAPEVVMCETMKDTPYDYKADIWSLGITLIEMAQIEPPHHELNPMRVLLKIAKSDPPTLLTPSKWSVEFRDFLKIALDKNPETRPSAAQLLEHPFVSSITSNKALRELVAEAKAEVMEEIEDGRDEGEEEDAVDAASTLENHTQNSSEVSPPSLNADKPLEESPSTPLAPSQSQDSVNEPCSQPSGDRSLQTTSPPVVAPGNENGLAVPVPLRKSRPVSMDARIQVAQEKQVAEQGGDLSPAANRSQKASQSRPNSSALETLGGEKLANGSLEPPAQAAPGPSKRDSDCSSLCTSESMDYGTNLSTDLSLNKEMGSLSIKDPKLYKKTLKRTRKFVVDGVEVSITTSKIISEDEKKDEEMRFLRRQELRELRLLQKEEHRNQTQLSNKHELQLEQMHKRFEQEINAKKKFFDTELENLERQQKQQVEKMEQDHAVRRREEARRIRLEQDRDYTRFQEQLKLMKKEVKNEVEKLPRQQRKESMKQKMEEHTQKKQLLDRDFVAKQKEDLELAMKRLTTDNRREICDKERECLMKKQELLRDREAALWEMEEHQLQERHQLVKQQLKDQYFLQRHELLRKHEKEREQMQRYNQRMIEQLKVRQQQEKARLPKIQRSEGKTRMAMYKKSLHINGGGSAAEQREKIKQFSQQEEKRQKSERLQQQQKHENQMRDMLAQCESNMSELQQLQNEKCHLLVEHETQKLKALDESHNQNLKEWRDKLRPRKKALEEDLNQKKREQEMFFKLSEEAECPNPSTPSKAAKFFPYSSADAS

Broadly, the inhibition is the drop in the measured response relative to a control, in per cent. On to `CC(C)n1cc(-c2cc(-c3ccc(CN4CCOCC4)cc3)cnc2N)nn1`, for which the inhibition was 17.5% in assay [1]; -0.4% in assay [2]; -5.5% in [3]; 4.2% in assay [4]; 14.5% in [5]; -6% in assay [6]. The inhibition in assay [7] was 8.7%; in assay [8], 14.2%; in assay [9] it was 21.9%; in assay [10], 21.9%; in [11] it was 7.7%; in [12], 1.5%. For the same molecule, the inhibition in [13] is 23.2%; in assay [14] it was 31.2%; in assay [15] it was 7.7%; in [16], 11.3%; in assay [17], 21.4%; in assay [18], 7.7%.
